Test results as given in ChEMBL document CHEMBL3352120, “Enantioselective induction of SIRT1 gene by syringaresinol from Panax ginseng berry and Acanthopanax senticosus Harms stem” (Bioorg Med Chem Lett, 2015).
Calls of active or inactive are those of the source. The rule behind the calls is not given here.

Assays:
HUVEC [1] = experiment: Cytotoxicity against HUVEC assessed as cell viability at 5 to 300 uM after 24 hrs by MTT assay; type: cell-based; conditions: human
HUVEC [2] = experiment: Induction of SIRT1 mRNA expression in HUVEC at 5 to 100 uM by quantitative RT-PCR analysis; type: functional, cell-based; conditions: Homo sapiens
Forkhead box protein O3 [3] = target: T1, Forkhead box protein O3 (Homo sapiens, UniProt O43524); experiment: Induction of FOXO3a binding to SIRT1 in HUVEC at 50 uM after 24 hrs by chromatin immunoprecipitation assay
T1 sequence (O43524 whole entry): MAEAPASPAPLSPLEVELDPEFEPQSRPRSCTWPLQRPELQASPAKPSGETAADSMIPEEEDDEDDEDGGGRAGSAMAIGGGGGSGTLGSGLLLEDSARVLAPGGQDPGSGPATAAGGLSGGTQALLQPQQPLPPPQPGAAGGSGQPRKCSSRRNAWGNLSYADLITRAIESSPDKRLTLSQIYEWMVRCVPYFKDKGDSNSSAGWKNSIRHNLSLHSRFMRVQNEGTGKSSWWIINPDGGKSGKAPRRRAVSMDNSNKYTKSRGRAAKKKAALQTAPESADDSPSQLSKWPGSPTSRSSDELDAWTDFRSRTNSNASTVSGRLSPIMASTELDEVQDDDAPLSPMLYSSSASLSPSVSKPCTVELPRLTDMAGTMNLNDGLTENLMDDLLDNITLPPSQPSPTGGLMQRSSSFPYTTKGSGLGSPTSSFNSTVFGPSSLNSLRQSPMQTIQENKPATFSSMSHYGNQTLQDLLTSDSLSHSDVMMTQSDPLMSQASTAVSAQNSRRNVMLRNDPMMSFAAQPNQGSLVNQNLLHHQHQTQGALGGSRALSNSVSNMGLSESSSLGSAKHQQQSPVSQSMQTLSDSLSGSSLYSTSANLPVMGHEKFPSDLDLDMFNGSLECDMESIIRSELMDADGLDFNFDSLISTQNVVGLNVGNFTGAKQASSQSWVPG

HUVEC [4] = experiment: Induction of SIRT1 mRNA expression in HUVEC at 5 to 100 uM after 24 hrs by luciferase reporter gene assay relative to untreated control; type: functional, cell-based; conditions: Homo sapiens
Forkhead box protein O3 [5] = target: T1, Forkhead box protein O3; experiment: Binding affinity to His-tagged FOXO3a (unknown origin) by SPR analysis
HUVEC [6] = experiment: Induction of SIRT1 mRNA expression in HUVEC after 24 hrs by luciferase reporter gene assay relative to untreated control; type: functional, cell-based; conditions: Homo sapiens
HUVEC [7] = experiment: Induction of SIRT1 mRNA expression in HUVEC by quantitative RT-PCR analysis; type: functional, cell-based; conditions: Homo sapiens

Structure (SMILES) | Activity (HUVEC [1]) | Activity (HUVEC [2]) | Activity (Forkhead box protein O3 [3]) | Activity (HUVEC [4]) | Activity (Forkhead box protein O3 [5]) | Kd (Forkhead box protein O3 [5]) [µM] | Activity (HUVEC [6]) | Activity (HUVEC [7])
COc1cc([C@@H]2OC[C@@H]3[C@H]2CO[C@H]3c2cc(OC)c(O)c(OC)c2)cc(OC)c1O | Non-toxic | inactive | inactive | inactive | inactive | – | – | –
COc1cc([C@H]2OC[C@H]3[C@@H]2CO[C@@H]3c2cc(OC)c(O)c(OC)c2)cc(OC)c1O [SYRINGARESINOL] | Non-toxic | – | Active | – | – | 1730 | Dose-dependent effect | Dose-dependent effect
